Legend:
[1] = target: T1, purine nucleoside phosphorylase (WT PNP) (Escherichia coli, UniProt P0ABP8); experiment: crystal structure ([…] Å) and isothermal titration calorimetry; format: binding
T1 construct: gene deoD; recombinant wild-type E. coli PNP, hexamer

xanthine oxidase (XO) [2] = target: T2, xanthine oxidase (XO) (Bos taurus, UniProt P80457); experiment: isothermal titration calorimetry (estimate only); weak substrate in oxidation assay; format: binding; parameters: gene XDH; commercial XO from bovine milk
T2 sequence (P80457 2-1332): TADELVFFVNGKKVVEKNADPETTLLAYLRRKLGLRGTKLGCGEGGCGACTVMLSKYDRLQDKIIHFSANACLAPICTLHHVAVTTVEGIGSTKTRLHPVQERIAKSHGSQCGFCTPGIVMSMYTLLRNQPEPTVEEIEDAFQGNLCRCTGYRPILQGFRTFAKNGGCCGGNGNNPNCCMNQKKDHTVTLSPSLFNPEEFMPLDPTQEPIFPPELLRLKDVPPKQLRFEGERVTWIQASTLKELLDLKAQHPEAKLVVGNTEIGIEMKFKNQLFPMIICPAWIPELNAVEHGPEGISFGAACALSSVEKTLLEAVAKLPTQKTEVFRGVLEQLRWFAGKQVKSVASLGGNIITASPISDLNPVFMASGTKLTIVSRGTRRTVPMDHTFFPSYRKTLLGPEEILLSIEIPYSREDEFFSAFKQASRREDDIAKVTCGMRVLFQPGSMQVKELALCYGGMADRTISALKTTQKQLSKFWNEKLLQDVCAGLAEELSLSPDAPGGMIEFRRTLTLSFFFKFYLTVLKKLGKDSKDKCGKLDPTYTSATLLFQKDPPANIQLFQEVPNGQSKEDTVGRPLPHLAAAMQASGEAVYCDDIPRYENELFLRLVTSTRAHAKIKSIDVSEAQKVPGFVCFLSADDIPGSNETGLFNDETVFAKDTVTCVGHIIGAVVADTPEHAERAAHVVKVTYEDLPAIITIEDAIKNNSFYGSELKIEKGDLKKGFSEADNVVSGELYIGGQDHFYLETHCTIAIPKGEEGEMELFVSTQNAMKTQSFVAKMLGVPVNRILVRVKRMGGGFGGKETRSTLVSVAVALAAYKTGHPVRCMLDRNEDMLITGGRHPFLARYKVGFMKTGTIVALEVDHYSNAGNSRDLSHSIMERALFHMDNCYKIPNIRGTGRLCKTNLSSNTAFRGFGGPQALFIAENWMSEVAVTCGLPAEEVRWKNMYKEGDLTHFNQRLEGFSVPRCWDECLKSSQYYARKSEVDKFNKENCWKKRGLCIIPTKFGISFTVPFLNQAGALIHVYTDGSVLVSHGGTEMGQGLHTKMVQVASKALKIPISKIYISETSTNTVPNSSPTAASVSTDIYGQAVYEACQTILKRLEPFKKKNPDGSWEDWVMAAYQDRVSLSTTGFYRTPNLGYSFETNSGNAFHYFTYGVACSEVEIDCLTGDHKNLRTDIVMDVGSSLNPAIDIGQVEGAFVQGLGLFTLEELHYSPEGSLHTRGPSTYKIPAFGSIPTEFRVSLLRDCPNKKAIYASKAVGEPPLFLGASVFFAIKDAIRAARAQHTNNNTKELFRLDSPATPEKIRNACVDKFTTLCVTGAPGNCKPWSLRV
From the text: isothermal titration calorimetry (estimate only); weak substrate in oxidation assay on xanthine oxidase (XO) | the endo- and exothermic processes were again observed.

xanthine oxidase (XO) [3] = target: T2, xanthine oxidase (XO); experiment: isothermal titration calorimetry (estimate only); also oxidation kinetics, apparent Km […] at pH […] and […] at pH […]; format: binding; parameters: gene XDH; commercial XO from bovine milk
xanthine oxidase (XO) [4] = target: T2, xanthine oxidase (XO); experiment: competition with oxidation of I, fluorimetric assay, pH […]; format: biochemical; parameters: gene XDH; commercial XO from bovine milk (purified enzyme)

T1 sequence (P0ABP8 2-239): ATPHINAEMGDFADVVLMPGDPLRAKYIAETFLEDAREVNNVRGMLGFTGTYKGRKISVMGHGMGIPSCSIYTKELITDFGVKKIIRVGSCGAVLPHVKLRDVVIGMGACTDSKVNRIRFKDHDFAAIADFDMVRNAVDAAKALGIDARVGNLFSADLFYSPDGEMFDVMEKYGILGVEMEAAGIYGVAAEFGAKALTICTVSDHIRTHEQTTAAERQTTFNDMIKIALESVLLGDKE

Question: Which results are given for `c1cn2c(n1)ncc1nc[nH]c12` [II, N^2,3-ε2APu]?
Answer: Kd [1]: 36200 nM; Kd (xanthine oxidase (XO) [2]): ~7.5 nM

Question: With `c1cn2cc3nc[nH]c3nc2n1` [I, 1,N^2-ε2APu] as the molecule, how does the Kd (xanthine oxidase (XO) [3]) read?
Answer: The Kd was ~2.2 nM.

Question: Which Ki (xanthine oxidase (XO) [4]) does the source give for `O=c1[nH]c(=O)c2[nH]cnc2[nH]1` [xanthine] here?
Answer: Its Ki is 3000 nM.

Source: publication PMC11477426, “Interaction of Tri-Cyclic Nucleobase Analogs with Enzymes of Purine Metabolism: Xanthine Oxidase and Purine Nucleoside Phosphorylase” (International Journal of Molecular Sciences, 2024)
